Compound | melting point
CC(C)COC(=O)Nc1cc(Cl)cc(Cl)c1 | 75 °C
COC(=O)c1ccc(C(F)(F)F)nc1S(N)(=O)=O | 187 to 188 °C
Cc1cc(Cl)c(O)cc1N | 144 °C
[N-]=[N+]=NC1CC(n2cc(C(I)=CI)c(=O)[nH]c2=O)OC1COC(c1ccccc1)(c1ccccc1)c1ccccc1 (configuration not stated) | 139 °C
CC(=NNc1ccccc1[N+](=O)[O-])c1ccccn1 | 145 to 146 °C
CCCN1OCC(=Cc2cc(C(C)(C)C)c(O)c(C(C)(C)C)c2)C1=O | 194 to 196 °C
CCCCCCCCSC(=O)n1cc2cc(C)c(NC(=O)c3cc(OC)nn3-c3ncccc3Cl)c(C(=O)NC(C)C)c2n1 | 98 to 102 °C
CC(C)(C)OC(=O)N1CCn2c(c(C(N)=O)c(C#N)c2C2CCOCC2)C1 | 212 to 221 °C
CCCCCCCCCCCc1[nH]c2cc(C(=O)O)ccc2c1C | 153 to 156 °C
CCCCCCC(=O)Nc1ccc(-n2nc(C(F)(F)F)cc2C(F)(F)F)cc1 | 88 to 90 °C
CC(=O)OC1CSC(Sc2cc(C(F)(F)F)cc(C(F)(F)F)c2)C(OC(C)=O)C1OC(C)=O (configuration not stated) | 201 °C
N#Cc1cc(C=C2NC(=S)NC2=O)cc(O)c1O | 210 to 213 °C
CN1CCC2(CC1)c1ccccc1Oc1c(O)cccc12 | 171 to 173 °C
CCOc1cc2c(cc1OC)CCN(c1nc(N)c3cc(OC)c(OC)cc3n1)C2 | 258 to 260 °C
O=C(Nc1ccc2oc3c(c2c1)CCCC3)C12CC3CC(CC(C3)C1)C2 | 247 to 248 °C
CCCCCCCCCCCCCCCCOCC(CO)Oc1ccon1 (configuration not stated) | 50 to 51 °C
CCCNC(=O)c1cnc2ccccc2c1O | 210 °C
CS(=O)(=O)N1CCN(S(=O)(=O)c2ccc3c(c2)S(=O)(=O)NC(C2CCCCC2)N3)CC1 (configuration not stated) | 272 to 274 °C
CC(=O)C12CCC(CC1)CC2(C)O (configuration not stated) | 43 to 44 °C
CN1CCN(c2ncc3c(=O)c(C(=O)O)cn(C)c3n2)CC1 | 280 °C
COC(=O)c1cc(OC)c(OC)cc1OC | 91.5 to 92.5 °C

Compound | melting point
O=C(NC(Cc1ccccc1)C(=O)C(F)(F)F)c1ccccc1 (racemic) | 148 to 157 °C
CCOC(=O)c1cnoc1-c1ccc(Cl)s1 | 74 to 75 °C
CON=CC1CCCN(OC(=O)c2ccccc2)C1 (configuration not stated) | 38 to 40 °C
CC(=O)N1CCSc2ccccc2C1 | 69 to 70 °C
CCCc1nc(Nc2ccc3cn[nH]c3c2)nc(NC2CCN(S(C)(=O)=O)CC2)n1 | 219 to 221 °C
COc1cc(-c2nc(N)nn2CCC2CCCCC2)c(OC)cc1C | 136 to 137 °C
CCOCc1nc2c(N)nc3ccccc3c2n1CC1(O)CCOCC1 | 212 to 214 °C
C=CCc1nc(Cl)nc(Cl)c1OC | 61 to 62 °C
O=c1[nH]c2ccc(Cl)cc2n1CCCN1CCN(C(c2ccccc2)c2ccccc2)CC1 | 132 °C
COc1cc2c(cc1OC)CN(CCCCNC(=O)c1cc(Br)cc(OC)c1OCCF)CC2 | 127 to 129 °C
NC(=O)NN=Cc1ccc(OCC2CCCCC2)cc1 | 218 to 219 °C
O=C(Nc1ccc(C=C2c3ccccc3CCc3ccccc32)cc1)c1ccncc1 | 252 °C
O=C(OC1CCCCCCCCCCC1)c1ccccc1C(=O)OC1CCCCCCCCCCC1 | 66 to 68 °C
COC1=NS(=O)N=C1NCCCCC#CCN(C)C (configuration not stated) | 154 to 155 °C
CC(=O)c1cc(C#N)c(=O)n(C=CN(C)C)c1 | 267 to 270 °C
Cc1cnc(Sc2nc(C)c(CC(=O)O)s2)c(C(=O)O)c1 | 229 to 231 °C
COC(=O)c1ccc(C=O)s1 | 79 °C
O=C(O)CON=Cc1ccc(Cl)cc1 | 121 to 123 °C
CC(=O)O[C@H]1C[C@@H](n2ccc(N)nc2=O)[C@H](O)[C@@H]1O (racemic) | 121 to 124 °C
CCCC(=O)c1ccc(OCCC(=O)O)c(Cl)c1Cl | 138 to 139 °C

The remaining lines, values ahead:

melting point | Compound
190 to 192 °C | N#Cc1cn(-c2ccccc2)nc1-c1ccc([N+](=O)[O-])o1
> 300 °C | COc1ccc(-c2ccc3c(c2)CCCc2c-3nc3ccc(F)cc3c2C(=O)O)cc1
42 to 43 °C | COC(=O)C(C)(C)Cc1ccc2oc(-c3nc(C(C)(C)C)cs3)cc2c1
182 to 183 °C | CNC(=O)Nc1ccc(F)cc1F
97 to 99 °C | CC(C)(C)Nc1nccc(C#Cc2ccc(F)cc2)n1
127 to 128 °C | Cc1ccc(-c2ncncc2C#N)cc1
228 °C | CNS(=O)(=O)c1cc2c(c(C(=O)NC3CCN(Cc4ccccc4)CC3)c1)OCCO2
150 to 152 °C | O=c1c2cc(Oc3ccc(Cl)cc3)ccc2cnn1Cc1cccnc1
164 to 167 °C | CCOC(=O)C(C)(C)c1nsc2ccc(-n3c(=O)cc(C(F)(F)F)n(C)c3=O)cc12
106 to 108 °C | CCc1cc(C(C)C)c(-c2ccc(O)cc2)cc1C
133 to 134 °C | Nc1cccc2c1ccn2S(=O)(=O)c1cccc2ccccc12
92 to 95 °C | CC(C)(C(=O)O)c1ccc2oc(-c3ccccc3)nc2c1
> 300 °C | Cc1c(-c2cnco2)[nH]c(=O)c2c1ccc1nc(Nc3c(Cl)cccc3Cl)n(C)c12
121 to 125 °C | NC(Cc1cccc2c(Cl)cccc12)=NO
209 to 210 °C | CCc1c(C(=O)c2cc(C)cc(C)c2)n(CC2CC=CC2)c(=O)[nH]c1=O
106 to 108 °C | NCCCNc1cccc2c1C(=O)c1ccccc1C2=O
110 °C | COc1ccc(Cn2c(-c3cc(OC)c(OC)c(OC)c3)nc3ccccc32)cc1
> 300 °C | COc1ccc2c(c1)C(=O)C(C(=O)O)C(c1ccccc1)=N2 (configuration not stated)
140 °C | COc1c(C2CCN(CCCCNC(=O)c3ccc(-c4ccc(C#N)cc4)cn3)CC2)ccc2c1CCCC2
126 to 128 °C | CCCCCS(=O)(=O)NC(=O)OCc1cc(OC(C)C)nn1Cc1ccc(Cl)cc1Cl
172 to 173 °C | CC(=O)OCC1CN(C(=O)OC(C)(C)C)c2cc(OCc3ccccc3)c3ncccc3c21 (configuration not stated)

melting point | Compound
90 to 92 °C | Clc1cncc(Cl)c1C1=NC(c2ccc(I)cc2)CO1 (configuration not stated)
76 to 79 °C | Cc1c(-c2ccccc2)nn(C(C)C(=O)N(C)C)c1C (configuration not stated)
148 to 150 °C | Cc1ncn(-c2ccc(C(=O)N3Cc4cccn4Cc4ccccc43)c(C(F)(F)F)c2)n1
> 280 °C | C[C@@H]1CCCC[C@@H]1Nc1c(C(N)=O)cnc2[nH]c(-c3ccc(F)cc3)cc12
198 to 200 °C | CCCc1nc2c(N)nc3cc(Oc4cccc([N+](=O)[O-])c4)ccc3c2n1CC(C)C
130 to 131 °C | O=C1CCCN1c1ccnn1-c1c(Cl)cc(C(F)(F)F)cc1Cl
107 to 110 °C | O=S(=O)(Oc1cccc(O)c1)c1ccc(Cl)c(Cl)c1
168 to 170 °C | Cc1cc(O)c(C(C)(C)C)cc1C=O
132 °C | CCOC(=O)C(Cc1ccc(N)s1)NC(=O)OC(C)(C)C (racemic)
155 to 156 °C | Cc1c(C)c2c(c(C)c1NC(=O)CC(C)(C)C)C(=O)C(C)(C)O2
75 to 80 °C | Cc1ccc(-c2ccc(O)cc2)c(-c2ccc(OCCN3CCOCC3)cc2)n1
> 250 °C | COc1cc2ncc(C#N)c(Nc3ccc(C)cc3O)c2cc1OC
134 to 137 °C | NS(=O)(=O)OCCOc1ccc(Br)cc1
102 to 104 °C | CCOC(=O)C1=C(C)NC(C)=C(C(=O)OCC)C1c1cc(Cl)cc(Cl)c1
208 to 209 °C | COc1ccccc1Sc1c(O)cc(-c2ccccc2)oc1=O
132 °C | Cc1noc(NS(=O)(=O)c2ccc(-c3ccccc3)s2)c1Br
156 to 157 °C | Cc1cccc(CCOc2ccc(CC3SC(=O)NC3=O)cc2)n1 (configuration not stated)
95 to 96 °C | CCCN(CCC)C(=O)COc1nc(-c2ccc(F)cc2)nc2c1CCCC2
133 to 134 °C | CS(=O)c1ccc(-c2nn(CC3CC3)c(=O)cc2-c2ccc(F)cc2)cc1 (configuration not stated)
99 to 100 °C | COc1ccc(-c2ccc(C=O)cc2)cc1
> 200 °C | CCC(=O)Nc1ccccc1-c1nc2ccccc2[nH]1

melting point | Compound
162 to 163 °C | Cc1nc2cccc(N)c2nc1C
93 to 95 °C | CC(CCl)n1c(C(F)(F)F)nc2cc(F)c(-n3c(=O)cc(C(F)(F)F)n(C)c3=O)cc21 (configuration not stated)
138 to 139 °C | Cc1cc(C2=C(c3cccc(F)c3)C(=O)C(C)(C)O2)ccc1S(C)(=O)=O
348 to 350 °C | COc1ccc2[nH]c3cc(-c4ccccc4C#N)c4c(c3c2c1)C(=O)NC4=O
154 to 155 °C | CSc1nc2ccc(Cl)cc2cc1C=O
161 °C | CC(=O)CC(=O)Nc1cccc(OC(=O)NC(C)C)c1
208 to 209 °C | C#CCN(Cc1ccc2nc(C)[nH]c(=O)c2c1)c1ccc(C(=O)NC(C)(C#N)Cc2ccccc2)cc1 (configuration not stated)
109 to 110 °C | CCOc1nn(-c2ccc(C(F)(F)F)cn2)cc1CCCCOc1ccccc1CC(=O)O
199 to 201 °C | Cn1c2c(c3cccc(OCc4ccccc4)c31)C(=O)NCC2
178 to 180 °C | Cc1ccc(-c2ccc(C(=O)Nc3ccc4cc(CN5CCCC5)cnc4c3C)cn2)cc1
142 to 144 °C | CC(C)(C)c1ccc2c(c1)C(=O)NC2
241 to 242 °C | CC(=O)Nc1ccc2oc(-c3ccccc3)c(O)c(=O)c2c1
235 to 239 °C | COc1ccc(-c2[nH]c(-c3ccc(NCCC(C)C)cc3)nc2C(=O)Nc2nccs2)cc1
211 to 212 °C | O=C(Cc1ccc(F)cc1C(=O)O)Nc1cccc(/C=C/c2nc(C3CCC3)cs2)c1
97 to 99 °C | COc1ccc(C2(C#Cc3cccc(-c4nnc(C)s4)c3)CCCC(=O)C2)cc1OC1CCCC1 (configuration not stated)
255 to 257 °C | Nc1c(-c2ccc(-c3ccc(F)cc3)cc2)nc2ccc(Cl)cc2c1C(=O)O
100 to 102 °C | CC(C)(C)C(=O)N1C(=O)C(C)(C)NC(C)(C)C1=O
255 to 257 °C | O=C(O)c1cccc(-c2ccc(Cl)c(C(=O)NCC34CC5CC(CC(C5)C3)C4)c2)c1
243 to 244 °C | CNc1nc(-c2ccc(F)cc2)c(-c2ccc(S(C)(=O)=O)cc2)s1

— a melting point compilation (Tetko et al.; mined from patent text by program, amines drawn as free bases though some values may be those of a salt)
